How the values were obtained:
A549-ACE2 [1] = assay: drug-induced phospholipidosis relative to tamoxifen; higher = more phospholipidosis
A549-ACE2 [2] = assay: phospholipidosis EC50; higher = less potent phospholipidosis inducer
U2OS [3] = assay: cell viability relative to DMSO; higher = less toxic; conditions: 72 h
HepG2 [4] = assay: as above; conditions: 72 h
Calu-3 [5] = assay: as above; conditions: 72 h
Caco-2 [6] = assay: as above; conditions: 72 h
Vero E6 [7] = assay: as above; conditions: 72 h
U2OS [8] = assay: drug sensitivity score (DSS) for viability; higher = more toxic; extreme values may be limits of the assay; conditions: 72 h
HepG2 [9] = assay: as above; conditions: 72 h
Calu-3 [10] = assay: as above; conditions: 72 h
Caco-2 [11] = assay: as above; conditions: 72 h
Vero E6 [12] = assay: as above; conditions: 72 h
[13] = tested on: A549-ACE2 infected with SARS-CoV-2; assay: SARS-CoV-2 infection rate relative to DMSO; higher = more infection; conditions: 24 h
U2OS [14] = assay: relative viability EC50 (midpoint between 100% and the lowest measured viability); higher = less toxic; conditions: 72 h
HepG2 [15] = assay: as above; conditions: 72 h
Caco-2 [16] = assay: as above; conditions: 72 h
Vero E6 [17] = assay: as above; conditions: 72 h
[18] = tested on: A549-ACE2 infected with SARS-CoV-2; assay: cell count relative to DMSO; higher = less toxic; conditions: 24 h
[19] = tested on: A549-ACE2 infected with SARS-CoV-2; assay: morphology score (similarity to uninfected cells); higher = more like uninfected cells; conditions: 24 h
Calu-3 [20] = assay: relative viability EC50 (midpoint between 100% and the lowest measured viability); higher = less toxic; conditions: 72 h

Fc1cc(-c2cccc3ncc(-c4cnn(C5CCNCC5)c4)nc23)cc(F)c1CN1CCOCC1 [NVP-BSK805]
drug-induced phospholipidosis [%], A549-ACE2 [1]
Conditions | 0.3 µM | 0.833333 µM | 3.33333 µM | 6.66667 µM | 10 µM | 30 µM
24 h | 5.98 | 16 | 55.1 | 93.5 | 113 | 119
48 h | 2.53 | 10.2 | 51.2 | 101 | 134 | –
72 h | 5.16 | 6.57 | 55.6 | 119 | – | –

Conditions | SARS-CoV-2 infection rate [%] | cell count [%] | cell viability [%] | morphology score | phospholipidosis EC50 [µM]
A549-ACE2 [2], 24 h | – | – | – | – | 3.94
A549-ACE2 [2], 48 h | – | – | – | – | 9.74
A549-ACE2 [2], 72 h | – | – | – | – | 4.49
Caco-2 [6], 1 nM | – | – | 99.5 | – | –
Caco-2 [6], 10 nM | – | – | 98.8 | – | –
Caco-2 [6], 100 nM | – | – | 104 | – | –
Caco-2 [6], 1000 nM | – | – | 105 | – | –
Caco-2 [6], 10000 nM | – | – | 39.8 | – | –
Calu-3 [5], 1 nM | – | – | 99.5 | – | –
Calu-3 [5], 10 nM | – | – | 97.2 | – | –
Calu-3 [5], 100 nM | – | – | 95 | – | –
Calu-3 [5], 1000 nM | – | – | 104 | – | –
Calu-3 [5], 10000 nM | – | – | 69.6 | – | –
HepG2 [4], 1 nM | – | – | 106 | – | –
HepG2 [4], 10 nM | – | – | 110 | – | –
HepG2 [4], 100 nM | – | – | 96.2 | – | –
HepG2 [4], 1000 nM | – | – | 93.1 | – | –
HepG2 [4], 10000 nM | – | – | 35.8 | – | –
U2OS [3], 1 nM | – | – | 101 | – | –
U2OS [3], 10 nM | – | – | 101 | – | –
U2OS [3], 100 nM | – | – | 97.6 | – | –
U2OS [3], 1000 nM | – | – | 97.2 | – | –
U2OS [3], 10000 nM | – | – | 22.9 | – | –
Vero E6 [7], 1 nM | – | – | 97.9 | – | –
Vero E6 [7], 10 nM | – | – | 102 | – | –
Vero E6 [7], 100 nM | – | – | 100 | – | –
Vero E6 [7], 1000 nM | – | – | 99.9 | – | –
Vero E6 [7], 10000 nM | – | – | 48.4 | – | –
[13], 0.1 µM | 96 | – | – | – | –
[13], 0.3 µM | 100 | – | – | – | –
[13], 1 µM | 86 | – | – | – | –
[13], 3 µM | 45 | – | – | – | –
[18], 0.1 µM | – | 102 | – | – | –
[18], 0.3 µM | – | 103 | – | – | –
[18], 1 µM | – | 105 | – | – | –
[18], 3 µM | – | 110 | – | – | –
[19], 0.1 µM | – | – | – | 0.17 | –
[19], 0.3 µM | – | – | – | 0.13 | –
[19], 1 µM | – | – | – | 0.47 | –
[19], 3 µM | – | – | – | 0.68 | –

Conditions | drug sensitivity score | relative viability EC50 [µM]
Caco-2 [11] | 2.9 | –
Caco-2 [16] | – | 3.55
Calu-3 [10] | 1.1 | –
HepG2 [9] | 4.6 | –
HepG2 [15] | – | 2.28
U2OS [8] | 4.6 | –
U2OS [14] | – | 2.9
Vero E6 [12] | 2.7 | –
Vero E6 [17] | – | 3.15

CN1CCN(Cc2ccc(-c3cnc4[nH]cc(-c5ccc6[nH]ccc6c5)c4c3)cc2)CC1 [URMC-099]
drug-induced phospholipidosis [%], A549-ACE2 [1]
Conditions | 0.3 µM | 0.833333 µM | 3.33333 µM | 6.66667 µM | 10 µM
24 h | 3.77 | 15.4 | 149 | 143 | 136
48 h | 2.54 | 6.25 | 111 | 164 | 208
72 h | 3.51 | 1.18 | 69.5 | 69.5 | 200

Conditions | SARS-CoV-2 infection rate [%] | cell count [%] | cell viability [%] | morphology score | phospholipidosis EC50 [µM]
A549-ACE2 [2], 24 h | – | – | – | – | 1.07
A549-ACE2 [2], 48 h | – | – | – | – | 4.29
A549-ACE2 [2], 72 h | – | – | – | – | 8.25
Caco-2 [6], 1 nM | – | – | 103 | – | –
Caco-2 [6], 10 nM | – | – | 107 | – | –
Caco-2 [6], 100 nM | – | – | 104 | – | –
Caco-2 [6], 1000 nM | – | – | 111 | – | –
Caco-2 [6], 10000 nM | – | – | 7.8 | – | –
Calu-3 [5], 1 nM | – | – | 93.1 | – | –
Calu-3 [5], 10 nM | – | – | 100 | – | –
Calu-3 [5], 100 nM | – | – | 95.3 | – | –
Calu-3 [5], 1000 nM | – | – | 128 | – | –
Calu-3 [5], 10000 nM | – | – | 111 | – | –
HepG2 [4], 1 nM | – | – | 111 | – | –
HepG2 [4], 10 nM | – | – | 89.8 | – | –
HepG2 [4], 100 nM | – | – | 95.8 | – | –
HepG2 [4], 1000 nM | – | – | 89.2 | – | –
HepG2 [4], 10000 nM | – | – | 5.3 | – | –
U2OS [3], 1 nM | – | – | 99 | – | –
U2OS [3], 10 nM | – | – | 95.5 | – | –
U2OS [3], 100 nM | – | – | 104 | – | –
U2OS [3], 1000 nM | – | – | 95.2 | – | –
U2OS [3], 10000 nM | – | – | 3.5 | – | –
Vero E6 [7], 1 nM | – | – | 92.9 | – | –
Vero E6 [7], 10 nM | – | – | 102 | – | –
Vero E6 [7], 100 nM | – | – | 95.4 | – | –
Vero E6 [7], 1000 nM | – | – | 105 | – | –
Vero E6 [7], 10000 nM | – | – | 0.9 | – | –
[13], 0.1 µM | 99 | – | – | – | –
[13], 0.3 µM | 102 | – | – | – | –
[13], 1 µM | 85 | – | – | – | –
[13], 3 µM | 18 | – | – | – | –
[18], 0.1 µM | – | 111 | – | – | –
[18], 0.3 µM | – | 105 | – | – | –
[18], 1 µM | – | 110 | – | – | –
[18], 3 µM | – | 108 | – | – | –
[19], 0.1 µM | – | – | – | 0.26 | –
[19], 0.3 µM | – | – | – | 0.37 | –
[19], 1 µM | – | – | – | 0.6 | –
[19], 3 µM | – | – | – | 0.68 | –

Conditions | drug sensitivity score | relative viability EC50 [µM]
Caco-2 [11] | 4.4 | –
Caco-2 [16] | – | 3.71
Calu-3 [10] | 0 | –
Calu-3 [20] | – | > 10
HepG2 [9] | 7 | –
HepG2 [15] | – | 2.23
U2OS [8] | 6 | –
U2OS [14] | – | 2.79
Vero E6 [12] | 5.1 | –
Vero E6 [17] | – | 3.45

CN1CC2c3ccccc3Oc3ccc(Cl)cc3C2C1 (stereo not given) [asenapine]
drug-induced phospholipidosis [%], A549-ACE2 [1]
Conditions | 0.3 µM | 0.833333 µM | 3.33333 µM | 6.66667 µM | 10 µM | 30 µM
24 h | 0.93 | 1.66 | 23.3 | 56.2 | 82.5 | 115
48 h | 2.52 | 0.05 | 14.9 | 49 | 77.2 | 111
72 h | 4.59 | 1.7 | 16.8 | 43.5 | 70.2 | 117

Conditions | SARS-CoV-2 infection rate [%] | cell count [%] | cell viability [%] | morphology score | phospholipidosis EC50 [µM]
A549-ACE2 [2], 24 h | – | – | – | – | 7.2
A549-ACE2 [2], 48 h | – | – | – | – | 7.65
A549-ACE2 [2], 72 h | – | – | – | – | 9.6
Caco-2 [6], 1 nM | – | – | 94.9 | – | –
Caco-2 [6], 10 nM | – | – | 108 | – | –
Caco-2 [6], 100 nM | – | – | 106 | – | –
Caco-2 [6], 1000 nM | – | – | 108 | – | –
Caco-2 [6], 10000 nM | – | – | 109 | – | –
Calu-3 [5], 1 nM | – | – | 94.9 | – | –
Calu-3 [5], 10 nM | – | – | 96.5 | – | –
Calu-3 [5], 100 nM | – | – | 90.8 | – | –
Calu-3 [5], 1000 nM | – | – | 104 | – | –
Calu-3 [5], 10000 nM | – | – | 89.2 | – | –
HepG2 [4], 1 nM | – | – | 112 | – | –
HepG2 [4], 10 nM | – | – | 106 | – | –
HepG2 [4], 100 nM | – | – | 103 | – | –
HepG2 [4], 1000 nM | – | – | 96.3 | – | –
HepG2 [4], 10000 nM | – | – | 96.7 | – | –
U2OS [3], 1 nM | – | – | 99.5 | – | –
U2OS [3], 10 nM | – | – | 105 | – | –
U2OS [3], 100 nM | – | – | 101 | – | –
U2OS [3], 1000 nM | – | – | 108 | – | –
U2OS [3], 10000 nM | – | – | 98.2 | – | –
[13], 0.3 µM | 94 | – | – | – | –
[13], 3 µM | 59 | – | – | – | –
[13], 10 µM | 32 | – | – | – | –
[13], 30 µM | 30 | – | – | – | –
[18], 0.3 µM | – | 102 | – | – | –
[18], 3 µM | – | 118 | – | – | –
[18], 10 µM | – | 109 | – | – | –
[18], 30 µM | – | 102 | – | – | –
[19], 0.3 µM | – | – | – | 0.2 | –
[19], 3 µM | – | – | – | 0.63 | –
[19], 10 µM | – | – | – | 0.71 | –
[19], 30 µM | – | – | – | 0.39 | –

Conditions | drug sensitivity score | relative viability EC50 [µM]
Caco-2 [11] | 0 | –
Caco-2 [16] | – | > 10
Calu-3 [10] | 0 | –
Calu-3 [20] | – | > 10
HepG2 [9] | 0 | –
HepG2 [15] | – | > 10
U2OS [8] | 0 | –
U2OS [14] | – | > 10
